Assay results from paper PMC5344293, “A phase 1 dose-escalation and expansion study of binimetinib (MEK162), a potent and selective oral MEK1/2 inhibitor” (British Journal of Cancer, 2017).

Experiment: Phase 1 safety: adverse events
Type: in vivo, human
Protocol: All patients underwent a complete medical history and physical examination, assessment of ECOG performance status and vital signs, and laboratory analysis of haematology, coagulation, clinical chemistry, and urine. Three serial resting and supine 12-lead electrocardiograms were conducted over 5–10 min and cardiac ejection fraction was assessed by echocardiogram or MUGA. In addition, a complete ophthalmologic examination (including visual acuity; fundoscopy and tonometry; optical coherence tomography; and slit-lamp, lens, vitreous, and fluorescence dye examinations) was performed on each patient. These assessments were repeated throughout study participation and/or as clinically indicated. Adverse events were reviewed on an ongoing basis.
Adverse events and serious AEs (SAEs) were coded by preferred term (PT) and system organ class using the Medical Dictionary for Regulatory Activities version 12.0. The severity of AEs was assessed by investigators using the National Cancer Institute Common Terminology Criteria for Adverse Events version 3.0. Two AEs of special interest were captured under the composite terms of ‘combined rash' and ‘combined ocular events.' The ‘combined rash' term included the PTs of dermatitis acneiform, acne, skin exfoliation, and any term containing ‘rash'. The ‘combined ocular events' term included the PTs of retinal deposits, retinopathy, papilloedema, chorioretinopathy, macular oedema, retinal detachment, and retinal disorder.
All patients who received ⩾1 dose of binimetinib were included in the safety analysis. Patients in the safety analysis who had ⩾1 measurable lesion at baseline and at least 1 post-baseline disease assessment were evaluable for efficacy. Kaplan–Meier estimates of progression-free survival (PFS) and overall survival (OS) were performed for patients in the expansion phase ([Kaplan and Meier, 1958]) using SAS Version 9.2 (SAS Institute Inc., Cary, NC, USA).

Cn1cnc2c(F)c(Nc3ccc(Br)cc3F)c(C(=O)NOCCO)cc21 [binimetinib]
Abdominal pain (30 mg BID (n=4), Gr 1/2): 1 (25) n (%)
Anaemia (30 mg BID (n=4), Gr 1/2): 1 (25) n (%)
Anorexia (30 mg BID (n=4), Gr 1/2): 1 (25) n (%)
Combined ocular events (30 mg BID (n=4), Gr 1/2): 0 (0) n (%)
Combined rash (30 mg BID (n=4), Gr 1/2): 4 (100) n (%)
Constipation (30 mg BID (n=4), Gr 1/2): 2 (50) n (%)
Diarrhoea (30 mg BID (n=4), Gr 1/2): 4 (100) n (%)
Dizziness (30 mg BID (n=4), Gr 1/2): 0 (0) n (%)
Dyspnoea (30 mg BID (n=4), Gr 1/2): 2 (50) n (%)
Fatigue (30 mg BID (n=4), Gr 1/2): 2 (50) n (%)
Nausea (30 mg BID (n=4), Gr 1/2): 3 (75) n (%)
Peripheral oedema (30 mg BID (n=4), Gr 1/2): 0 (0) n (%)
Pyrexia (30 mg BID (n=4), Gr 1/2): 2 (50) n (%)
Vomiting (30 mg BID (n=4), Gr 1/2): 3 (75) n (%)
Abdominal pain (30 mg BID (n=4), Gr 3/4): 0 (0) n (%)
Anaemia (30 mg BID (n=4), Gr 3/4): 0 (0) n (%)
Anorexia (30 mg BID (n=4), Gr 3/4): 0 (0) n (%)
Combined ocular events (30 mg BID (n=4), Gr 3/4): 0 (0) n (%)
Combined rash (30 mg BID (n=4), Gr 3/4): 0 (0) n (%)
Constipation (30 mg BID (n=4), Gr 3/4): 0 (0) n (%)
Diarrhoea (30 mg BID (n=4), Gr 3/4): 0 (0) n (%)
Dizziness (30 mg BID (n=4), Gr 3/4): 0 (0) n (%)
Dyspnoea (30 mg BID (n=4), Gr 3/4): 0 (0) n (%)
Fatigue (30 mg BID (n=4), Gr 3/4): 0 (0) n (%)
Nausea (30 mg BID (n=4), Gr 3/4): 0 (0) n (%)
Peripheral oedema (30 mg BID (n=4), Gr 3/4): 0 (0) n (%)
Pyrexia (30 mg BID (n=4), Gr 3/4): 0 (0) n (%)
Vomiting (30 mg BID (n=4), Gr 3/4): 0 (0) n (%)
Incidence of ocular events (30 mg BID dose group): 0%
Patients reporting SAEs (30 mg BID dose group): 50%
Abdominal pain (45 mg BID (n=44), Gr 1/2): 7 (16) n (%)
Anaemia (45 mg BID (n=44), Gr 1/2): 5 (11) n (%)
Anorexia (45 mg BID (n=44), Gr 1/2): 8 (18) n (%)
Combined ocular events (45 mg BID (n=44), Gr 1/2): 5 (11) n (%)
Combined rash (45 mg BID (n=44), Gr 1/2): 33 (75) n (%)
Constipation (45 mg BID (n=44), Gr 1/2): 6 (14) n (%)
Diarrhoea (45 mg BID (n=44), Gr 1/2): 17 (39) n (%)
Dizziness (45 mg BID (n=44), Gr 1/2): 5 (11) n (%)
Dyspnoea (45 mg BID (n=44), Gr 1/2): 5 (11) n (%)
Fatigue (45 mg BID (n=44), Gr 1/2): 18 (41) n (%)
Nausea (45 mg BID (n=44), Gr 1/2): 27 (61) n (%)
Peripheral oedema (45 mg BID (n=44), Gr 1/2): 20 (45) n (%)
Pyrexia (45 mg BID (n=44), Gr 1/2): 7 (16) n (%)
Vomiting (45 mg BID (n=44), Gr 1/2): 23 (52) n (%)
Abdominal pain (45 mg BID (n=44), Gr 3/4): 1 (2) n (%)
Anaemia (45 mg BID (n=44), Gr 3/4): 3 (7) n (%)
Anorexia (45 mg BID (n=44), Gr 3/4): 0 (0) n (%)
Combined ocular events (45 mg BID (n=44), Gr 3/4): 0 (0) n (%)
Combined rash (45 mg BID (n=44), Gr 3/4): 1 (2) n (%)
Constipation (45 mg BID (n=44), Gr 3/4): 0 (0) n (%)
Diarrhoea (45 mg BID (n=44), Gr 3/4): 0 (0) n (%)
Dizziness (45 mg BID (n=44), Gr 3/4): 0 (0) n (%)
Dyspnoea (45 mg BID (n=44), Gr 3/4): 2 (5) n (%)
Fatigue (45 mg BID (n=44), Gr 3/4): 2 (5) n (%)
Nausea (45 mg BID (n=44), Gr 3/4): 0 (0) n (%)
Peripheral oedema (45 mg BID (n=44), Gr 3/4): 0 (0) n (%)
Pyrexia (45 mg BID (n=44), Gr 3/4): 0 (0) n (%)
Vomiting (45 mg BID (n=44), Gr 3/4): 0 (0) n (%)
AEs resulting in treatment discontinuation, patients (45 mg BID dose group): 16%
AEs that resulted in dose reduction, patients (45 mg BID dose group): 16%
Incidence of combined rash (45 mg BID dose group): 77%
Incidence of diarrhoea (45 mg BID dose group): 39%
Incidence of nausea (45 mg BID dose group): 61%
Incidence of ocular events (45 mg BID dose group): 11%
Incidence of peripheral oedema (45 mg BID dose group): 45%
Incidence of vomiting (45 mg BID dose group): 52%
Median time to onset of combined rash (45 mg BID dose group): 8 days
Patients reporting SAEs (45 mg BID dose group): 20%
Abdominal pain (60 mg BID (n=41), Gr 1/2): 7 (17) n (%)
Anaemia (60 mg BID (n=41), Gr 1/2): 5 (12) n (%)
Anorexia (60 mg BID (n=41), Gr 1/2): 8 (20) n (%)
Combined ocular events (60 mg BID (n=41), Gr 1/2): 11 (27) n (%)
Combined rash (60 mg BID (n=41), Gr 1/2): 35 (85) n (%)
Constipation (60 mg BID (n=41), Gr 1/2): 8 (20) n (%)
Diarrhoea (60 mg BID (n=41), Gr 1/2): 25 (61) n (%)
Dizziness (60 mg BID (n=41), Gr 1/2): 9 (22) n (%)
Dyspnoea (60 mg BID (n=41), Gr 1/2): 6 (15) n (%)
Fatigue (60 mg BID (n=41), Gr 1/2): 16 (39) n (%)
Nausea (60 mg BID (n=41), Gr 1/2): 21 (51) n (%)
Peripheral oedema (60 mg BID (n=41), Gr 1/2): 21 (51) n (%)
Pyrexia (60 mg BID (n=41), Gr 1/2): 7 (17) n (%)
Vomiting (60 mg BID (n=41), Gr 1/2): 20 (49) n (%)
Abdominal pain (60 mg BID (n=41), Gr 3/4): 3 (7) n (%)
Anaemia (60 mg BID (n=41), Gr 3/4): 10 (24) n (%)
Anorexia (60 mg BID (n=41), Gr 3/4): 0 (0) n (%)
Combined ocular events (60 mg BID (n=41), Gr 3/4): 0 (0) n (%)
Combined rash (60 mg BID (n=41), Gr 3/4): 1 (2) n (%)
Constipation (60 mg BID (n=41), Gr 3/4): 2 (5) n (%)
Diarrhoea (60 mg BID (n=41), Gr 3/4): 0 (0) n (%)
Dizziness (60 mg BID (n=41), Gr 3/4): 0 (0) n (%)
Dyspnoea (60 mg BID (n=41), Gr 3/4): 1 (2) n (%)
Fatigue (60 mg BID (n=41), Gr 3/4): 1 (2) n (%)
Nausea (60 mg BID (n=41), Gr 3/4): 0 (0) n (%)
Peripheral oedema (60 mg BID (n=41), Gr 3/4): 0 (0) n (%)
Pyrexia (60 mg BID (n=41), Gr 3/4): 1 (2) n (%)
Vomiting (60 mg BID (n=41), Gr 3/4): 0 (0) n (%)
AEs resulting in treatment discontinuation, patients (60 mg BID dose group): 15%
AEs that resulted in dose reduction, patients (60 mg BID dose group): 49%
Incidence of combined rash (60 mg BID dose group): 88%
Incidence of diarrhoea (60 mg BID dose group): 61%
Incidence of nausea (60 mg BID dose group): 51%
Incidence of ocular events (60 mg BID dose group): 27%
Incidence of peripheral oedema (60 mg BID dose group): 51%
Incidence of vomiting (60 mg BID dose group): 49%
Median time to onset of combined rash (60 mg BID dose group): 10 days
Patients reporting SAEs (60 mg BID dose group): 41%
Abdominal pain (80 mg BID (n=4), Gr 1/2): 1 (25) n (%)
